In ChEMBL document CHEMBL5696441 (Nat Chem Biol, 2011):

Assays:
[1] = target: T1, Serine/threonine-protein kinase 17A (Homo sapiens) (UniProt Q9UEE5); assay: Inhibition of human STK17A assessed as residual activity at 1 uM using RB-CTF as substrate in presence of 33P-ATP by ProQinase assay relative to control
T1 sequence (whole entry): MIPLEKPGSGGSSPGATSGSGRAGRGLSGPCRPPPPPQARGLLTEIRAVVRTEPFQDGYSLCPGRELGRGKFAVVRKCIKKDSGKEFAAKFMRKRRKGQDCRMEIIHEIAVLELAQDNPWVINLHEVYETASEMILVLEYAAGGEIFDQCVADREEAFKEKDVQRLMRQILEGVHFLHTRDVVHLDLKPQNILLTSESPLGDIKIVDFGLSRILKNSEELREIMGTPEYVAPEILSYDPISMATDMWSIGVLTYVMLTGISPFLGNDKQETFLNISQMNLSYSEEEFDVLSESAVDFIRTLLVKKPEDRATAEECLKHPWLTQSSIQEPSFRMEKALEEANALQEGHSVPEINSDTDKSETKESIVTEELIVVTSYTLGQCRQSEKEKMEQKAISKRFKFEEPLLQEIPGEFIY

[2] = target: Calcium/calmodulin-dependent protein kinase type 1 (Homo sapiens) (UniProt Q14012); assay: Inhibition of CAMK1 (unknown origin) assessed as remaining activity at 1 uM by Kinome scan method relative to control
[3] = target: Serine/threonine-protein kinase D2 (Homo sapiens) (UniProt Q9BZL6); assay: Inhibition of PRKD2 (unknown origin) assessed as remaining activity at 1 uM by Kinome scan method relative to control
[4] = target: Serine/threonine-protein kinase pim-3 (Homo sapiens) (UniProt Q86V86); assay: Inhibition of PIM3 (unknown origin) assessed as remaining activity at 1 uM by Kinome scan method relative to control
[5] = target: Mitogen-activated protein kinase 6 (Homo sapiens) (UniProt Q16659); assay: Inhibition of ERK3 (unknown origin) assessed as remaining activity at 1 uM by Kinome scan method relative to control
[6] = target: Ephrin type-B receptor 1 (Homo sapiens) (UniProt P54762); assay: Inhibition of EPHB1 (unknown origin) assessed as remaining activity at 1 uM by Kinome scan method relative to control
[7] = Anti-inflammatory activity against human derived medium respond PBMC cells assessed as inhibition in stimulated TARC chemokine release incubated for 2 hrs in the presence of LPS/SEB/aCD28 by Luminex based sandwich immunoassay; type: functional, cell-based
[8] = target: Casein kinase I isoform alpha-like (Homo sapiens) (UniProt Q8N752); assay: Inhibition of CSNK1A1L (unknown origin) assessed as remaining activity at 1 uM by Kinome scan method relative to control
[9] = target: Dual specificity tyrosine-phosphorylation-regulated kinase 1B (Homo sapiens) (UniProt Q9Y463); assay: Inhibition of human DYRK1B assessed as residual activity at 1 uM using RBER-CHKtide as substrate in presence of 33P-ATP by ProQinase assay relative to control
[10] = target: Tyrosine-protein kinase Fer (Homo sapiens) (UniProt P16591); assay: Inhibition of FER (unknown origin) assessed as remaining activity at 1 uM by Kinome scan method relative to control
[11] = target: Calcium/calmodulin-dependent protein kinase kinase 2 (Homo sapiens) (UniProt Q96RR4); assay: Inhibition of CAMKK2 (unknown origin) assessed as remaining activity at 1 uM by Kinome scan method relative to control
[12] = target: Cyclin-Y/Cyclin-dependent kinase 16 (Homo sapiens) (UniProt Q00536+Q8ND76); assay: Inhibition of human PCTAIRE1/CyclinY assessed as residual activity at 1 uM using RBER-GSK3 as substrate in presence of 33P-ATP by ProQinase assay relative to control; type: protein-complex assay
[13] = Anti-inflammatory activity against human derived high respond PBMC cells assessed as inhibition in stimulated IL-8 cytokine release incubated for 2 hrs in the presence of LPS/SEB/aCD28 by Luminex based sandwich immunoassay; type: functional, cell-based
[14] = target: T2, Megakaryocyte-associated tyrosine-protein kinase (Homo sapiens) (UniProt P42679); assay: Inhibition of human MATK assessed as residual activity at 1 uM using polyEy as substrate in presence of 33P-ATP by ProQinase assay relative to control
T2 sequence (whole entry): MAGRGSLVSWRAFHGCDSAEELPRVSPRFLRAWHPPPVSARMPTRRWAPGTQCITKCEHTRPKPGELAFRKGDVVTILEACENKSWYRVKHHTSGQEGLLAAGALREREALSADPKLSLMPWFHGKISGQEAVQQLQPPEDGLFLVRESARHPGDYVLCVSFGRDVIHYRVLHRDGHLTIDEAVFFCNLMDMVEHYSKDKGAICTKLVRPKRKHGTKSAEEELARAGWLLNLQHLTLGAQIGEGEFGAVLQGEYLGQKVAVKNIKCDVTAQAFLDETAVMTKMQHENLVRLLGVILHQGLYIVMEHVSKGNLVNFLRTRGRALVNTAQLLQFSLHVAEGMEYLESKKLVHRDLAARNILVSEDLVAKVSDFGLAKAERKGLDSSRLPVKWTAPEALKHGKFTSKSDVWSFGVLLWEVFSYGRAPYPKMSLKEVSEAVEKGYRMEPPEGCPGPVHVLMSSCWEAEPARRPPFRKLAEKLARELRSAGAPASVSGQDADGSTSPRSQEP

[15] = Anti-inflammatory activity against human derived high respond PBMC cells assessed as inhibition in stimulated IL-1ra cytokine release incubated for 2 hrs in the presence of LPS/SEB/aCD28 by Luminex based sandwich immunoassay; type: functional, cell-based
[16] = target: Fibroblast growth factor receptor 4 (Homo sapiens) (UniProt P22455); assay: Inhibition of human FGFR4 assessed as residual activity at 1 uM using polyEy as substrate in presence of 33P-ATP by ProQinase assay relative to control
[17] = target: Serine/threonine-protein kinase Nek7 (Homo sapiens) (UniProt Q8TDX7); assay: Inhibition of NEK7 (unknown origin) assessed as remaining activity at 1 uM by Kinome scan method relative to control
[18] = system: Hepatocyte growth factor receptor (Homo sapiens), P08581 [Y1235D]; assay: Inhibition of MET Y1235D mutant (unknown origin) assessed as remaining activity at 1 uM by Kinome scan method relative to control
[19] = target: Tyrosine-protein kinase BTK (Homo sapiens) (UniProt Q06187); assay: Inhibition of BTK (unknown origin) assessed as remaining activity at 1 uM by Kinome scan method relative to control
[20] = target: NUAK family SNF1-like kinase 1 (Homo sapiens) (UniProt O60285); assay: Inhibition of human ARK5 assessed as residual activity at 1 uM using RBER-CHKtide as substrate in presence of 33P-ATP by ProQinase assay relative to control
[21] = target: Tyrosine-protein kinase JAK2 (Homo sapiens) (UniProt O60674); assay: Inhibition of human JAK2 assessed as residual activity at 1 uM using poly(Ala,Glu,Lys,Tyr)6:2:5:1 as substrate in presence of 33P-ATP by ProQinase assay relative to control

Sequence of Mitogen-activated protein kinase 6 (Homo sapiens) (Q16659 whole entry): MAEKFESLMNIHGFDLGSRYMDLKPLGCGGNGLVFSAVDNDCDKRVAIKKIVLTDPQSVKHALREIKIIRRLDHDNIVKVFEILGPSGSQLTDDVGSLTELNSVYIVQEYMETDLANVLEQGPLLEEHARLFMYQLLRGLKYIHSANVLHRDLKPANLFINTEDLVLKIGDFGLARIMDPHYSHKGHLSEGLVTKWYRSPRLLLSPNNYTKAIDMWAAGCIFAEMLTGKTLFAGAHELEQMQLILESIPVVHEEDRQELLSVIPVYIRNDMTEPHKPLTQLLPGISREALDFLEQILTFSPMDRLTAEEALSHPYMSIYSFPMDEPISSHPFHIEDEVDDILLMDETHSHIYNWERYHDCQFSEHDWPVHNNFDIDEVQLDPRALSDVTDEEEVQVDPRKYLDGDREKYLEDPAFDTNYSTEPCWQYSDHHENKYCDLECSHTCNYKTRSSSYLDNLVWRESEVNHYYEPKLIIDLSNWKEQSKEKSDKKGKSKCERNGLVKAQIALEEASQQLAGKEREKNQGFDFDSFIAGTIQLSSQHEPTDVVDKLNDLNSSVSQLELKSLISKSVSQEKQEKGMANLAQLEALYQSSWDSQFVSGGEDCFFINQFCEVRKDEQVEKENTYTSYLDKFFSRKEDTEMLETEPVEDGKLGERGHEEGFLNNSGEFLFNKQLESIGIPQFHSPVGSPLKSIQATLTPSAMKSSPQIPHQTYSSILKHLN
Sequence of Calcium/calmodulin-dependent protein kinase kinase 2 (Homo sapiens) (Q96RR4 2-588 limits assumed): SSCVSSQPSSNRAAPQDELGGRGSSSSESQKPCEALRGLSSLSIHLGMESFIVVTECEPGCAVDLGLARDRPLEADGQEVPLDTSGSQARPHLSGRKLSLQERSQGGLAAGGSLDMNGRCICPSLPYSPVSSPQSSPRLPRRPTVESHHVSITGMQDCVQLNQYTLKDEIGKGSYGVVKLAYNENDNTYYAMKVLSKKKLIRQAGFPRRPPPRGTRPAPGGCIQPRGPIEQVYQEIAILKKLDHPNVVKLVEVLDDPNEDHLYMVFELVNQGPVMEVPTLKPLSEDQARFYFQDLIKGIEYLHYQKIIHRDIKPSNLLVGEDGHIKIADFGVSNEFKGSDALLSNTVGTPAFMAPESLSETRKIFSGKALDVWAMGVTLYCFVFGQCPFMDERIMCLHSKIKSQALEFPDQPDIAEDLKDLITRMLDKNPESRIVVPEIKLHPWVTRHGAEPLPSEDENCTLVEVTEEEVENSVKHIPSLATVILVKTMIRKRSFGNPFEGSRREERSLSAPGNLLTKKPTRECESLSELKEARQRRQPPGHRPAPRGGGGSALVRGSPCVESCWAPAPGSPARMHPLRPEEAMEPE
Sequence of Tyrosine-protein kinase Fer (Homo sapiens) (P16591 whole entry, looked up): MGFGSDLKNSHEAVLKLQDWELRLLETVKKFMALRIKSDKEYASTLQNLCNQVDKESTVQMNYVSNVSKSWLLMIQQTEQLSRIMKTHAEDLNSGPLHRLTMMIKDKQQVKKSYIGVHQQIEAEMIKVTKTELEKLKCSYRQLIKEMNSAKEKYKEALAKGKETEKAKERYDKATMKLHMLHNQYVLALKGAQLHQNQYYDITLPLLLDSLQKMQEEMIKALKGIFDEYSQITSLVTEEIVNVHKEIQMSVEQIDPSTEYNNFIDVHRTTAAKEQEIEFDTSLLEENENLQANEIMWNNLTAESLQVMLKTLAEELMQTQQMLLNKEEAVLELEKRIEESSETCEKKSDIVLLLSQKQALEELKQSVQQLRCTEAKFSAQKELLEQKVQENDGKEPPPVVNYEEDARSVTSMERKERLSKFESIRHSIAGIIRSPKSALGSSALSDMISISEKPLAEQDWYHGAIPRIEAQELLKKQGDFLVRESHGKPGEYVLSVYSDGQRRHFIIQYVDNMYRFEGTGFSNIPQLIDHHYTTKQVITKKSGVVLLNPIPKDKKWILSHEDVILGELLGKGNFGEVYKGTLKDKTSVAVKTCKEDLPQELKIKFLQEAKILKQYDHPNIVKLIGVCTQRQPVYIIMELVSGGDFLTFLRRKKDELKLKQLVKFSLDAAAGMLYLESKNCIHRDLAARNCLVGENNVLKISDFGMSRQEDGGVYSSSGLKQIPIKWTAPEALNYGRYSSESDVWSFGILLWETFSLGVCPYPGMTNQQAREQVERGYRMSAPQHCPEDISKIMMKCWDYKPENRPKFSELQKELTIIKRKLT
Sequence of Casein kinase I isoform alpha-like (Homo sapiens) (Q8N752 whole entry, canonical isoform): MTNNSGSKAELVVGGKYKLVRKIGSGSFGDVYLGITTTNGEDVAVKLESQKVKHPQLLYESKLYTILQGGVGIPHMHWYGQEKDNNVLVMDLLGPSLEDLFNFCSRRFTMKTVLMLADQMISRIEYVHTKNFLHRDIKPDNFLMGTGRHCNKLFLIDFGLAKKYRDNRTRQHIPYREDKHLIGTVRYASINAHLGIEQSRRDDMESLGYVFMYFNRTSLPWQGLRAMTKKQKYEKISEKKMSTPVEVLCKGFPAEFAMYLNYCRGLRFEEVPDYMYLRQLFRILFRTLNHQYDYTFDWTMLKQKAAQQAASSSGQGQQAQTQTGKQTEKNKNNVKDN
Sequence of Serine/threonine-protein kinase D2 (Homo sapiens) (Q9BZL6 whole entry): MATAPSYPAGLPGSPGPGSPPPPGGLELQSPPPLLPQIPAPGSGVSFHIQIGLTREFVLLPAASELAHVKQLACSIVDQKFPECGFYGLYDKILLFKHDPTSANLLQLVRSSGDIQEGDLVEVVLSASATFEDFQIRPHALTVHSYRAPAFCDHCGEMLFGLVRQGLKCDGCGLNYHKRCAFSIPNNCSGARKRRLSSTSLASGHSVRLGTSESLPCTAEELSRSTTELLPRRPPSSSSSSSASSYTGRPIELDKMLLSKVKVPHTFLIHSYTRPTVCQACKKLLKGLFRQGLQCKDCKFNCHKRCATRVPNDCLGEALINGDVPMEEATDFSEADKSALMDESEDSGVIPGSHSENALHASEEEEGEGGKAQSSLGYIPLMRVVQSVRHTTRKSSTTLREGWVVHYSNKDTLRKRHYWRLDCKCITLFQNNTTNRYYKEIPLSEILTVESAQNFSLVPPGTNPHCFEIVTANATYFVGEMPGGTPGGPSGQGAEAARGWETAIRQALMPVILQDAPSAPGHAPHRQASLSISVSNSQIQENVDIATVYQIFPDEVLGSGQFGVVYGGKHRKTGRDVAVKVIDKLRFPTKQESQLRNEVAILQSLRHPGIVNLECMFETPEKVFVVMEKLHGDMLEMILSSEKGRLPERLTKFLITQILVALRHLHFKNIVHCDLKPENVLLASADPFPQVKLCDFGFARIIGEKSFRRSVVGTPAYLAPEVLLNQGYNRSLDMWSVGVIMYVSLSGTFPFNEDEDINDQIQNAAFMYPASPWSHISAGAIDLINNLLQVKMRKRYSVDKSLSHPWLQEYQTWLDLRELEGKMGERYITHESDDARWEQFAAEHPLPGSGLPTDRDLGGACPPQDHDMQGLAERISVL
Sequence of Serine/threonine-protein kinase Nek7 (Homo sapiens) (Q8TDX7 whole entry, looked up): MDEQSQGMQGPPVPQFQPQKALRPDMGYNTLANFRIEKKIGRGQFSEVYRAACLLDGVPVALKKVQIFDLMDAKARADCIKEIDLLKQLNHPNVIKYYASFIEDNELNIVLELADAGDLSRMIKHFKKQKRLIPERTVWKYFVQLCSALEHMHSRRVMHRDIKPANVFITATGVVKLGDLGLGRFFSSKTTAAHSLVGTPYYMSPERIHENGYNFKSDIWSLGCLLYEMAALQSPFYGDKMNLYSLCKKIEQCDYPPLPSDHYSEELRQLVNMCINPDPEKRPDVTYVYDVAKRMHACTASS
Sequence of Dual specificity tyrosine-phosphorylation-regulated kinase 1B (Homo sapiens) (Q9Y463 whole entry, looked up): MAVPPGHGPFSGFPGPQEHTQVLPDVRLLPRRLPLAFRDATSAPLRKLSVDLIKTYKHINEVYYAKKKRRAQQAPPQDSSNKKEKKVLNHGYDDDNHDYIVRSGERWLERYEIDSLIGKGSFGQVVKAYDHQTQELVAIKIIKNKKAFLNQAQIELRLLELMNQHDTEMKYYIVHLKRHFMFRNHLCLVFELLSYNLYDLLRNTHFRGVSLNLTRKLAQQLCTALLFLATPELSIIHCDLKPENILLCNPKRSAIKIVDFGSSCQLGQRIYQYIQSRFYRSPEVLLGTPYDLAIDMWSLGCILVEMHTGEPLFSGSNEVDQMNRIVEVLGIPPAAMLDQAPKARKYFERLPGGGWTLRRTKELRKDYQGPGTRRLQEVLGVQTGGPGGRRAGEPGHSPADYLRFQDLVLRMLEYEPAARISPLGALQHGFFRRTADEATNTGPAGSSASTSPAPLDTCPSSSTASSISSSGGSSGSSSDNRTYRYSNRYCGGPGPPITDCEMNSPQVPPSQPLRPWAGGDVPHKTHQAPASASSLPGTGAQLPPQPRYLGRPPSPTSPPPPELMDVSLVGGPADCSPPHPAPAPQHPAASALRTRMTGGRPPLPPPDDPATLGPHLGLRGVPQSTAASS
Sequence of Calcium/calmodulin-dependent protein kinase type 1 (Homo sapiens) (Q14012 whole entry, looked up): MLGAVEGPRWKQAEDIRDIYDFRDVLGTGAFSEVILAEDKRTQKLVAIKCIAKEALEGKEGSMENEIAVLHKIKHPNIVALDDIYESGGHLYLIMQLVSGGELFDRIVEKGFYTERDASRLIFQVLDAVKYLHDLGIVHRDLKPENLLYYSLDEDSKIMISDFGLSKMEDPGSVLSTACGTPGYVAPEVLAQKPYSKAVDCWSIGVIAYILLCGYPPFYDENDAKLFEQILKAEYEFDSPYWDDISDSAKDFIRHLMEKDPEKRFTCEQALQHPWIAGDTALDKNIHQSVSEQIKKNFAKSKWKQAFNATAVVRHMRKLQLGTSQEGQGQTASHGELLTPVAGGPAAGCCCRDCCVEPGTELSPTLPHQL

`O=C1c2ccc(Nc3ccc(F)cc3F)cc2CCc2ccc(OC[C@H](O)CO)cc21` [Skepinone-L] gave an Activity [1] of 77%, an Activity [2] of 100% and an Activity [3] of 100%. The Activity [4] was 100%, the Activity [5] was 100% and the Activity [6] was 98%. For the same molecule, the IC50 [7] was “Not Active”, the Activity [8] was 98% and the Activity [9] was 102%. For the same molecule, the Activity [10] was 100%, the Activity [11] was 98% and the Activity [12] was 79%. It also gave an IC50 [13] of 90 nM, an Activity [14] of 111% and an IC50 [15] of 200 nM. The Activity [16] was 103%, the Activity [17] was 96% and the Activity [18] was 97%. It also gave an Activity [19] of 100%, an Activity [20] of 115% and an Activity [21] of 90%.
